Assay results taken from EP0279150A1, “5-Oxy-substituted-3-aminochroman compounds, processes for their preparation, pharmaceutical compositions containing them and methods of treatment therewith” (ASTRA LAKEMEDEL AKTIEBOLAG, priority 1986, dated 1988).
pIC50: −log10 of the molar value.

Legend:
[1] = molecular target: T1, Dopamine-D₂ (Rattus norvegicus, UniProt P61169); assay: Receptor binding assay, ³H-spiroperidol; conditions: ³H-spiroperidol binding, rat brain membranes
T1 construct: The striata were dissected, pooled and homogenized in 50 mM Tris-HCl buffer (pH 7.6); from tissue; host or cells: rat striatum membrane fraction
T1 sequence (P61169 whole entry): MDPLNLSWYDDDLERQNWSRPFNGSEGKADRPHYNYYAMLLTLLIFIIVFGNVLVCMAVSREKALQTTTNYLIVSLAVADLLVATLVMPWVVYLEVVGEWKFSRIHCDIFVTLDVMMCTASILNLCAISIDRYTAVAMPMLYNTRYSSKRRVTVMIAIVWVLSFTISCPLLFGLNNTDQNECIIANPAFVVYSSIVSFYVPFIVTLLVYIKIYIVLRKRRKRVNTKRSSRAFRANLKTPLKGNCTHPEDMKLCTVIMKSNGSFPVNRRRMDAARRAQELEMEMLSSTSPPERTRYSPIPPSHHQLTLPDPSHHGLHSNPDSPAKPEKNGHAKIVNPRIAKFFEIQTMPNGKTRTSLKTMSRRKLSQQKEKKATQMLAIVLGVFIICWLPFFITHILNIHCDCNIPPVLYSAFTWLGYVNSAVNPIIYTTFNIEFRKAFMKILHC
Description: (§1) The method of Peroulka & Snyder (Mol.Pharmacol. 16, 687-699, 1979) was used. Male Sprague-Dawley rats weighing 150-200 g were decapitated, and their brains were rapidly removed. The striata were dissected, pooled and homogenized in 50 mM Tris-HCl buffer (pH 7.6). The membrane fraction was collected by centrifugation (48 000 g for ten minutes), washed once with the buffer, and resuspended in 50 mM Tris HCl (pH 7.6) containing 0.1% ascorbic acid, 10 mM paragyline, 120 mM NaCl, 5 mM KCl, 2 mM CaCl₂ and 1 mM MgCl₂. The suspension was preincubated at 37°C for 10 minutes and then kept on ice until use.
(§2) The assays have been carried out using a cell harvester equipment. The incubations were made in quadruplicate, each well containing membrane suspension, ³H-spiperone (0.4 nM) or ³H-5-HT (5 nM) and the test compound in a final volume of 0.5 ml. After incubation for 10 minutes at 37°C, the contents of the wells were rapidly filtered and washed on Whatman GF/B filters using the Cell harvester. The specific binding was defined as the difference of radioligand bound in the presence and in the absence of a specific displacer (d-LSD, lµM and 5-HT, 10 µM for ³4-spiperone and ³H-5-HT, respectively). The test results are expressed as IC₅₀. The IC₅₀ value is given in nM, indicates the concentration of the test substance which reduces the amount of specifically bound radioligand by 50%..

[2] = molecular target: 5-HT₁; assay: Receptor binding assay, ³H-5-HT; conditions: ³H-5-HT (5 nM) binding, rat brain (striatal) membranes, 10 minutes at 37°C; read-out: IC₅₀
Description: as §1, §2

[3] = molecular target: T2, 5-HT₂ (Rattus norvegicus, UniProt P14842); assay: Receptor binding assay, ³H-Ketanserin; conditions: ³H-Ketanserin binding, rat brain membranes
T2 construct: from tissue
T2 sequence (P14842 whole entry): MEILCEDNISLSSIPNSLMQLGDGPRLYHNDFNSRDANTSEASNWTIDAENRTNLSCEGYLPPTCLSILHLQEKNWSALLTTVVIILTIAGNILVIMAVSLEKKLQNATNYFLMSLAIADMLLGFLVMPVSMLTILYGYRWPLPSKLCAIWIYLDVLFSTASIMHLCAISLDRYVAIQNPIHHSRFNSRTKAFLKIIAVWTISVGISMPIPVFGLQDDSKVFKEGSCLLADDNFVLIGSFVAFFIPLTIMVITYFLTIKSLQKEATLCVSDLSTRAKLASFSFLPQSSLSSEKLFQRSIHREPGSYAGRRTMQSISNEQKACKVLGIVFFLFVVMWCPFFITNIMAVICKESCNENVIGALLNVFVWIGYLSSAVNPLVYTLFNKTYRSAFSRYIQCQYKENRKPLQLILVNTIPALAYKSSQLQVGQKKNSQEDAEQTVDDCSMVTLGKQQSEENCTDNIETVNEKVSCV

## CCCN(CCC)C1COc2cccc(O)c2C1 (stereo not drawn) [3-di-propylamino-5-hydroxychroman, 3-dipropylamino-5-hydroxychroman]
[1]
  activity in ³H-spiroperidol (Dopamine-D₂) receptor binding: inactive
[2]
  pIC50: 7.08
[3]
  activity in ³H-Ketanserin (5-HT₂) receptor binding: inactive
